Laboratory results reported in patent US9206128B2 (Constellation Pharmaceuticals, Inc., priority 2011, dated 2015).

Key:
EZH2 = EZH2 (Homo sapiens, UniProt Q15910); test: EZH2 activity inhibition assay (rPRC2, 3H SAM, biotinylated oligonucleosomes, FlashPlate); assay type: biochemical; details: rPRC2, 2 nM EZH2, 0.2 μM 3H SAM, top concentration 80 μM
Protocol: (§1) EZH2 Assay: Assays were carried out by mixing rPRC2 together with biotinylated oligonucleosome substrates in the presence of the radio-labeled enzyme co-factor, S-adenosyl-L-methionine (^3H SAM) (Perkin Elmer) and monitoring the enzymatically mediated transfer of tritiated methyl groups from ^3H SAM to histone lysine residues. The amount of resulting tritiated methyl histone product was measured by first capturing the biotinylated oligonucleosomes in streptavidin (SAV) coated FlashPlates (Perkin Elmer), followed by a wash step to remove un-reacted ^3H SAM, and then counting on a TopCount NXT 384 well plate scintillation counter (Perkin Elmer).
A 12.5 μL volume of the HMT enzyme, H3K27me3 peptide and oligonucleosome substrate in assay buffer was added to each well of the assay plate using a Multidrop Combi (ThermoFisher). Compounds were pre-incubated with the enzyme for 20 min, followed by initiation of the methyltransferase reaction by addition of 12.5 μL of 3H SAM in assay buffer (final volume=25 μL). […] Stopped reactions were transferred to SAV coated Flashplates (Perkin Elmer), incubated for 120 min, washed with a plate washer, and then read on the TopCount NXT (1.0 min/well) to measure the amount of methyl histone product formed during the reaction.

Y641N EZH2 = Y641N EZH2 (Homo sapiens, UniProt Q15910, Y641N); test: Y641N EZH2 activity inhibition assay (as EZH2 assay, reconstituted H3K27Me2 oligonucleosomes as substrate); assay type: biochemical; details: Y641N EZH2 mutant enzyme
Protocol: as §1, with “Elmer). The final assay conditions for EZH2 were as follows: 50 mM Tris Buffer pH 8.5, 1 mM DTT, 69 μM Brij-35 detergent, 5.0 mM MgCl2, 0.1 mg/mL BSA, 0.2 μM ^3H SAM, 0.2 μM biotinylated oligonucleosomes, 3.6 μM H3K27me3 peptide and 2 nM EZH2.” for “Elmer).”
A 12.5 μL volume of the HMT enzyme, H3K27me3 peptide and oligonucleosome substrate in assay buffer was added to each well of the assay plate using a Multidrop Combi (ThermoFisher). Compounds were pre-incubated with the enzyme for 20 min, followed by initiation of the methyltransferase reaction by addition of 12.5 μL of 3H SAM in assay buffer (final volume=25 μL). The final concentrations of compounds ranged from a top default concentration of 80 μM down to 0.16 μM in ten 2-fold dilution steps. Reactions were carried out for 60 minutes and quenched with 20 μL per well of 1.96 mM SAH, 50 mM Tris PH 8.5, 200 mM EDTA. Stopped reactions were transferred to SAV coated Flashplates (Perkin Elmer), incubated for 120 min, washed with a plate washer, and then read on the TopCount NXT (1.0 min/well) to measure the amount of methyl histone product formed during the reaction.

Sequence of Y641N EZH2 (Q15910 whole entry Y641N): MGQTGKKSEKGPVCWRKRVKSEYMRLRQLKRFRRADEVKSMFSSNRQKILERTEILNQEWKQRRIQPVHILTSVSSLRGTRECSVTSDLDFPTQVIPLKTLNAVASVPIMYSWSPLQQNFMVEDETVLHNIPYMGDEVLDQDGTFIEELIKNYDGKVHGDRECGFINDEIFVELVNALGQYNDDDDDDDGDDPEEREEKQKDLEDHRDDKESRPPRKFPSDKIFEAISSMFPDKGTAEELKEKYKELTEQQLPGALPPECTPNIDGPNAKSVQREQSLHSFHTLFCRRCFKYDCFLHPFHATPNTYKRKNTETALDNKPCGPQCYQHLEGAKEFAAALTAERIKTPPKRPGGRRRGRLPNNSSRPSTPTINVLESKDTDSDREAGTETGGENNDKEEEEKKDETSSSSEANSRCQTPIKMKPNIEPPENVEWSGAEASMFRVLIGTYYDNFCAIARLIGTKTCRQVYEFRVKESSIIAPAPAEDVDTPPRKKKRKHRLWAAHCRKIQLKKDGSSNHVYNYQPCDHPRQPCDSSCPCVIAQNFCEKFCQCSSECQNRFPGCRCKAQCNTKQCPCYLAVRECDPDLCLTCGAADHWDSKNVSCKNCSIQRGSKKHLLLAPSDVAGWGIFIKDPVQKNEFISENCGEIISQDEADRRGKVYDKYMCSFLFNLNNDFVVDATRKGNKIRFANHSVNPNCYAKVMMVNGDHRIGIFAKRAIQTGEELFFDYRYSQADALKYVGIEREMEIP
Sequence of Y641N EZH2 (O75530 whole entry partner): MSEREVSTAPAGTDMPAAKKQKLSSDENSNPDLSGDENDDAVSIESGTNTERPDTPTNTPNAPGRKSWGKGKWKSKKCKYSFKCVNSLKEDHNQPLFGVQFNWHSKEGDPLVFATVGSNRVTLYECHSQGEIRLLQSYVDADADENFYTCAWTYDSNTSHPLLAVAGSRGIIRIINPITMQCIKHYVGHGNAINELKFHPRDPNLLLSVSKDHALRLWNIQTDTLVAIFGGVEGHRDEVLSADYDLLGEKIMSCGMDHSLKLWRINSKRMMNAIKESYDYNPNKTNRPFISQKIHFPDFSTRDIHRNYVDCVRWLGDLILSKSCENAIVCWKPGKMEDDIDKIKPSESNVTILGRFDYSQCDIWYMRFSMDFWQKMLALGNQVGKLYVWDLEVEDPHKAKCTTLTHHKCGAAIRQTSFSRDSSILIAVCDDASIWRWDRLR
Sequence of Y641N EZH2 (Q15022 whole entry partner): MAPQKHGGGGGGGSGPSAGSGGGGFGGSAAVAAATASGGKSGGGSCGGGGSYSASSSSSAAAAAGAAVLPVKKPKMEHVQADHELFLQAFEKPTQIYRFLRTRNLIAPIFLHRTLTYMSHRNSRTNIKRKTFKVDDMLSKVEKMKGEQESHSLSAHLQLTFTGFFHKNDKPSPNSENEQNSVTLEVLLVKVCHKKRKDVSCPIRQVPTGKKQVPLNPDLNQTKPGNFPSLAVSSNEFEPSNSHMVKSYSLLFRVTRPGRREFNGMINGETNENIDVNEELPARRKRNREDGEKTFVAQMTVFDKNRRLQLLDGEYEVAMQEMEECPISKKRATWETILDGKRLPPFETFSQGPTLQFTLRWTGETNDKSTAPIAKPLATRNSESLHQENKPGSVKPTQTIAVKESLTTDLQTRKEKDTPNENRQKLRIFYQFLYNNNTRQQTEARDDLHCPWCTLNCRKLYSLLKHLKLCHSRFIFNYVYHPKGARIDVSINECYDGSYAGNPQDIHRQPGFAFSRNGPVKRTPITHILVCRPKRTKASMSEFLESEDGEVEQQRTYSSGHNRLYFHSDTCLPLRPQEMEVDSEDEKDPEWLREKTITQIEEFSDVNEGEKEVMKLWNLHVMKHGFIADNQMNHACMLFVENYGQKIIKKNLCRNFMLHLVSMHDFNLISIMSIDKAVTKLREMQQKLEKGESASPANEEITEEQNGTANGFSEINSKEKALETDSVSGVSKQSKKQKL
Sequence of EZH2 (Q15910 whole entry): as the sequence (Q15910 whole entry Y641N) above, with N641Y counted along it
Sequence of EZH2 (O75530 whole entry partner): as the sequence (O75530 whole entry partner) above
Sequence of EZH2 (Q15022 whole entry partner): as the sequence (Q15022 whole entry partner) above

Row | IC50 (EZH2) | IC50 (Y641N EZH2) | SMILES
1 | 10 to 50 µM | > 80 µM | Cc1cc(C)c(CNC(=O)c2ccc(CN(C)c3ccccc3)cc2)c(=O)[nH]1 [Compound I-36, N-((2-hydroxy-4,6-dimethylpyridin-3-yl)methyl)-4-((methyl(phenyl)amino)methyl)benzamide]
2 | 1 to 10 µM | 1 to 10 µM | Cc1cc(C)c(CNC(=O)c2ccc(Oc3ccccc3)c(C)c2)c(=O)[nH]1 [Compound I-37, N-((2-hydroxy-4,6-dimethylpyridin-3-yl)methyl)-3-methyl-4-phenoxybenzamide]
3 | < 1 µM | 1 to 10 µM | Cc1cc(C)c(CNC(=O)c2ccc(C(C)Oc3ccccc3C)cc2)c(=O)[nH]1 (stereo not drawn) [Compound I-38, N-((2-hydroxy-4,6-dimethylpyridin-3-yl)methyl)-4-(1-(o-tolyloxy)ethyl)benzamide]
4 | < 1 µM | < 1 µM | Cc1cccc(OC(C)c2ccc(C(=O)NCc3c(C)cc(C)[nH]c3=O)cc2)c1 (stereo not drawn) [Compound I-39, N-((2-hydroxy-4,6-dimethylpyridin-3-yl)methyl)-4-(1-(m-tolyloxy)ethyl)benzamide]
5 | 1 to 10 µM | 10 to 50 µM | Cc1cc(C)c(CNC(=O)c2ccc(CNc3ccccc3)cc2)c(=O)[nH]1 [Compound I-40, N-((2-hydroxy-4,6-dimethylpyridin-3-yl)methyl)-4-((phenylamino)methyl)benzamide]
6 | < 1 µM | < 1 µM | Cc1cc(C)c(CNC(=O)c2ccc(C(C)Oc3ccccc3F)cc2)c(=O)[nH]1 (stereo not drawn) [Compound I-41, 4-(1-(2-fluorophenoxy)ethyl)-N-((2-hydroxy-4,6-dimethylpyridin-3-yl)methyl)benzamide]
7 | < 1 µM | < 1 µM | Cc1cc(C)c(CNC(=O)c2ccc(C(C)Oc3cccc(F)c3)cc2)c(=O)[nH]1 (stereo not drawn) [Compound I-42, 4-(1-(3-fluorophenoxy)ethyl)-N-((2-hydroxy-4,6-dimethylpyridin-3-yl)methyl)benzamide]
8 | 10 to 50 µM | > 50 µM | Cc1cc(C)c(CNC(=O)c2ccc(C(Oc3ccccc3)C(C)C)cc2)c(=O)[nH]1 (stereo not drawn) [Compound I-43, N-((2-hydroxy-4,6-dimethylpyridin-3-yl)methyl)-4-(2-methyl-1-phenoxypropyl)benzamide]
9 | < 1 µM | < 1 µM | CCC(Oc1ccccc1)c1ccc(C(=O)NCc2c(C)cc(C)[nH]c2=O)cc1 (stereo not drawn) [Compound I-44, N-((2-hydroxy-4,6-dimethylpyridin-3-yl)methyl)-4-(1-phenoxypropyl)benzamide]
10 | > 50 µM | > 80 µM | Cc1cc(C)c(CNC(=O)c2ccc3c(c2)CCC3Oc2ccccc2)c(=O)[nH]1 (stereo not drawn) [Compound I-45, N-((2-hydroxy-4,6-dimethylpyridin-3-yl)methyl)-1-phenoxy-2,3-dihydro-1H-indene-5-carboxamide]
11 | < 1 µM | < 1 µM | Cc1cc(C)c(CNC(=O)c2ccc(C(C)Oc3ccc(F)cc3)cc2)c(=O)[nH]1 (stereo not drawn) [Compound I-46, 4-(1-(4-fluorophenoxy)ethyl)-N-((2-hydroxy-4,6-dimethylpyridin-3-yl)methyl)benzamide]
12 | > 50 µM | 10 to 50 µM | Cc1cc(C(F)(F)F)[nH]c(=O)c1CNC(=O)c1ccc(Oc2ccccc2)cc1 [Compound I-47, N-((2-hydroxy-4-methyl-6-(trifluoromethyl)pyridin-3-yl)methyl)-4-phenoxybenzamide]
13 | 1 to 10 µM | > 80 µM | Cc1cc(C)c(CNC(=O)c2ccc(CCc3ccccc3)cc2)c(=O)[nH]1 [Compound I-48, N-((2-hydroxy-4,6-dimethylpyridin-3-yl)methyl)-4-phenethylbenzamide]
14 | 10 to 50 µM | 10 to 50 µM | Cc1cc(C)c(CNC(=O)c2ccc(C(CC(C)C)Oc3ccccc3)cc2)c(=O)[nH]1 (stereo not drawn) [Compound I-49, N-((2-hydroxy-4,6-dimethylpyridin-3-yl)methyl)-4-(3-methyl-1-phenoxybutyl)benzamide]
15 | 1 to 10 µM | > 80 µM | Cc1cc(C)c(CNC(=O)c2ccc([C@@H](C)Oc3ccccc3)cc2C)c(=O)[nH]1 [Compound I-50]
16 | 1 to 10 µM | > 80 µM | Cc1cc(C)c(CNC(=O)c2ccc(C3Cc4ccccc4O3)cc2)c(=O)[nH]1 (stereo not drawn) [Compound I-51, 4-(2,3-dihydrobenzofuran-2-yl)-N-((2-hydroxy-4,6-dimethylpyridin-3-yl)methyl)benzamide]
17 | 10 to 50 µM | 10 to 50 µM | Cc1cc(C)c(CNC(=O)c2ccc3c(c2)CCCC3Oc2ccccc2)c(=O)[nH]1 (stereo not drawn) [Compound I-52, N-((2-hydroxy-4,6-dimethylpyridin-3-yl)methyl)-5-phenoxy-5,6,7,8-tetrahydronaphthalene-2-carboxamide]
18 | 10 to 50 µM | 10 to 50 µM | COC(c1ccccc1)c1ccc(C(=O)NCc2c(C)cc(C)[nH]c2=O)cc1 (stereo not drawn) [Compound I-53, N-((2-hydroxy-4,6-dimethylpyridin-3-yl)methyl)-4-(methoxy(phenyl)methyl)benzamide]
19 | < 1 µM | 1 to 10 µM | Cc1cc(C)c(CNC(=O)c2ccc(COc3ccccc3)c(C)c2)c(=O)[nH]1 [Compound I-54, N-((2-hydroxy-4,6-dimethylpyridin-3-yl)methyl)-3-methyl-4-(phenoxymethyl)benzamide]
20 | < 1 µM | < 1 µM | Cc1cc(C)c(CNC(=O)c2ccc([C@H](C)Oc3ccccc3)cc2C)c(=O)[nH]1 [Compound I-55, (S)—N-((2-hydroxy-4,6-dimethylpyridin-3-yl)methyl)-2-methyl-4-(1-phenoxyethyl)benzamide]
21 | 1 to 10 µM | > 80 µM | Cc1cc(C)c(CNC(=O)c2ccc(C(C)n3ccccc3=O)cc2)c(=O)[nH]1 (stereo not drawn) [Compound I-56, N-((2-hydroxy-4,6-dimethylpyridin-3-yl)methyl)-4-(1-(2-oxopyridin-1(2H)-yl)ethyl)benzamide]
22 | 1 to 10 µM | 1 to 10 µM | Cc1nc(C)c(CNC(=O)c2ccc(Oc3ccccc3)cc2)c(=O)[nH]1 [Compound I-59, N-((4-hydroxy-2,6-dimethylpyrimidin-5-yl)methyl)-4-phenoxybenzamide]
23 | < 1 µM | 1 to 10 µM | Cc1cc(C)c(CNC(=O)c2ccc(C(C)Oc3ccccn3)cc2)c(=O)[nH]1 (stereo not drawn) [Compound I-60, N-((2-hydroxy-4,6-dimethylpyridin-3-yl)methyl)-4-(1-(pyridin-2-yloxy)ethyl)benzamide]
24 | < 1 µM | < 1 µM | Cc1cc(C)c(CNC(=O)c2ccc(C(C)Oc3ccccc3)c(F)c2)c(=O)[nH]1 (stereo not drawn) [Compound I-63, 3-fluoro-N-((2-hydroxy-4,6-dimethylpyridin-3-yl)methyl)-4-(1-phenoxyethyl)benzamide]
25 | 1 to 10 µM | > 80 µM | Cc1cc(C)c(CNC(=O)c2ccc(C(C)Oc3ccccc3)nc2)c(=O)[nH]1 (stereo not drawn) [Compound I-64, N-((2-hydroxy-4,6-dimethylpyridin-3-yl)methyl)-6-(1-phenoxyethyl)nicotinamide]
26 | 10 to 50 µM | > 80 µM | Cc1cc(C(F)(F)F)c(CNC(=O)c2ccc(Oc3ccccc3)cc2)c(=O)[nH]1 [Compound I-65, N-((2-hydroxy-6-methyl-4-(trifluoromethyl)pyridin-3-yl)methyl)-4-phenoxybenzamide]
27 | < 1 µM | < 1 µM | Cc1cc(C)c(CNC(=O)c2ccc(C(C)Oc3ccccc3)cc2Cl)c(=O)[nH]1 (stereo not drawn) [Compound I-66, 2-chloro-N-((2-hydroxy-4,6-dimethylpyridin-3-yl)methyl)-4-(1-phenoxyethyl)benzamide]
28 | < 1 µM | < 1 µM | Cc1cc(C)c(CNC(=O)c2ccc([C@H](C)Oc3cccc(-c4ccc(N)nc4)c3)cc2)c(=O)[nH]1 [Compound I-69]
29 | 10 to 50 µM | > 80 µM | Cc1cc(C)c(CNC(=O)c2ccc(C(C)Oc3ncccn3)cc2)c(=O)[nH]1 (stereo not drawn) [Compound I-76, N-((2-hydroxy-4,6-dimethylpyridin-3-yl)methyl)-4-(1-(pyrimidin-2-yloxy)ethyl)benzamide]
30 | 1 to 10 µM | > 80 µM | Cc1cc(C)c(CNC(=O)c2ccc(C(C)Oc3cccnc3)nc2)c(=O)[nH]1 (stereo not drawn) [Compound I-78, N-((2-hydroxy-4,6-dimethylpyridin-3-yl)methyl)-6-(1-(pyridin-3-yloxy)ethyl)nicotinamide]
